The target of series [1] is T1, H-2 K^b (Mus musculus, UniProt P01901).
T1 sequence (P01901 22-369): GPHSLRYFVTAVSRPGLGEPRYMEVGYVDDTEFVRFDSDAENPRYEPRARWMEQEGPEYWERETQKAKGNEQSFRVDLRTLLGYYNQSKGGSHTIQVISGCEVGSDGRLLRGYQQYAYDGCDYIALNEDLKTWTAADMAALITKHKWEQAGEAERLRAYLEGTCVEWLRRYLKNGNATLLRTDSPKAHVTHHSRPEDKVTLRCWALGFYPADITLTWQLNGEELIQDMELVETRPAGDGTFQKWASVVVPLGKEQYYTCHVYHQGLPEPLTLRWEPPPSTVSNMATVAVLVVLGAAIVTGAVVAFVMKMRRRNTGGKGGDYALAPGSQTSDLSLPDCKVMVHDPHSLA
T1 sequence (P01887 21-119 partner): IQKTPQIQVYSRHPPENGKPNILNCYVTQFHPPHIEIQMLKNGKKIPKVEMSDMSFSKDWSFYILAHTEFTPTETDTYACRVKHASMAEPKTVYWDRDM
As to the kind of experiment: RMA-S K^b stabilization assay.
Description: Data was analyzed after normalization and modeling using ECAnything (Prism 8). […] (A) RMA-S K^b stabilization assay. Variant peptides were titrated, added to RMA-S cells, and the relative H-2 K^b surface expression (MFI) was determined by flow cytometry. […] Each assay was repeated 4 times.
Titrated (100uM to 1pM) were added to RMA-S cells (5x10^4/well) and cultured overnight at 27C in 5% CO2. The cells were the shifted to 37C for 1–2 hours, and then their surface expression of K^b was analyzed by flow cytometry.
Normalized and fitted data from Fig 6A.using the ECanything nonlinear regression model (Prism 8) to fit the curves. By setting F = 50, the IC50 was determined for each data set. The points are the experimental data, the solid lines are the fitted line, and the dashed lines are the 95% confidence intervals. This experiment was repeated four times with similar results.

The conditions of series [2]: C57BL/6J mice, 37C, up to 60 minutes.

Peptide text beside a SMILES is read from it.

In series [1], `CC[C@H](C)[C@H](N)C(=O)N[C@@H](CCSC)C(=O)N[C@@H](Cc1ccc(O)cc1)C(=O)N[C@@H](CC(N)=O)C(=O)N[C@@H](Cc1ccc(O)cc1)C(=O)N1CCC[C@H]1C(=O)N[C@H](C(=O)N[C@@H](CCSC)C(=O)O)[C@@H](C)O` [A10T] (H-IMYNYPTM-OH) gave a 50% inhibitory concentration (IC50) of 28.1 µM.
The molecule `CC[C@H](C)[C@H](N)C(=O)N[C@@H](CCSC)C(=O)N[C@@H](Cc1ccc(O)cc1)C(=O)N[C@@H](CC(N)=O)C(=O)N[C@@H](Cc1ccc(O)cc1)C(=O)N1CCC[C@H]1C(=O)N[C@H](C(=O)N[C@@H](CCSC)C(=O)O)C(C)C` [A10V] (H-IMYNYPVM-OH) came in with an IC50 in series [1] of 21.3 µM.
`CC[C@H](C)[C@H](N)C(=O)N[C@@H](CCSC)C(=O)N[C@@H](Cc1ccc(O)cc1)C(=O)N[C@@H](CC(N)=O)C(=O)N[C@@H](Cc1ccc(O)cc1)C(=O)N1CCC[C@H]1C(=O)N[C@@H](C)C(=O)N[C@H](C(=O)O)[C@@H](C)CC` [M11I] (H-IMYNYPAI-OH): inhibition in series [1] was half-maximal at 29.1 µM (IC50).
Molecule `CC[C@H](C)[C@H](N)C(=O)N[C@@H](CCSC)C(=O)N[C@@H](Cc1ccc(O)cc1)C(=O)N[C@@H](CC(N)=O)C(=O)N[C@@H](Cc1ccc(O)cc1)C(=O)N[C@@H](CO)C(=O)N[C@@H](C)C(=O)N[C@@H](CCSC)C(=O)O` [P9S] (H-IMYNYSAM-OH) showed a concentration for half-maximal inhibition (IC50) in series [1] of 59.3 µM.
With `CC[C@H](C)[C@H](NC(=O)[C@@H](NC(=O)[C@@H](N)CO)[C@@H](C)CC)C(=O)N[C@@H](CC(N)=O)C(=O)N[C@@H](Cc1ccccc1)C(=O)N[C@@H](CCC(=O)O)C(=O)N[C@@H](CCCCN)C(=O)N[C@@H](CC(C)C)C(=O)O` [reference compound], in series [1], the IC50 was 7.32 µM.
Regarding IMANAPAM, the “Stabilization of K^b (in words)” value in series [1] (RMA-S cells, surface K^b by flow cytometry, negative control peptide) is “failed to stabilize K^b”.
MSQIMYNYPTMLGHAGDMAGYAGTLQSLGAEIAV: in series [2], the cleaved bond entry is reported as “Y21-A22”.
